Literature values in patent publication US20240115492A1, “AN ORODISPERSIBLE PHARMACEUTICAL SOLID DOSAGE FORM OF RASAGILINE” (INTAS PHARMACEUTICALS LTD., priority 2021, published 2024).

Q: Which results are given for `C#CCN(C)[C@H](C)Cc1ccccc1` [selegiline]?
A: Selegiline plasma exposure, ODT versus conventional tablets (10 mg orally disintegrated tablets vs conventional 10 mg tablets): twelve-time higher; selegiline absorbed through the mucous membrane of the mouth (ODT form (10 mg), within 1 minute): about 30%
